Source: US9120838B2, “Saccharide conjugates” (Curators of the University of Missouri, priority 2011, dated 2015)
Where two headings read alike, the source gives them in different places.

What was measured:
THP-1 macrophages = test: Cell viability (toxicity) by XTT reduction assay in THP-1 macrophages; type: cell-based, human; details: for toxicity (in words): THP-1 macrophages; for concentration at which toxic to the cells / cell viability compromised: XTT reduction assay
Procedure: Cell viability was monitored using an XTT [2,3-bis(2-methoxy-4-nitro-5-sulfophenyl)-2H-tetrazolium-5-carboxanilide] assay. Macrophage metabolic activity was assessed by probing mitochondrial reduction of XTT (Sigma) which is a measure of viability (or toxicity) in response to the synthetic antagonists. Following 6 h treatment with antagonist compounds and LPS, the macrophages were washed with PBS (Hyclone) and incubated with XTT (0.33 mg/mL) and phenazine methosulfate (PMS) (8.3 μM) (Acros, Morris Plains, N.J.) to a final concentration of 0.33 mg/mL and 8.3 μM respectively for 2 h at 37° C. in 5% CO2. The cellular toxicity was then assessed in a platereader using absorbance of reduced XTT at 467 nm.

[1] = test system: LPS-induced TNFα production; test: LPS antagonism assay: inhibition of LPS-induced TNFα production in THP-1 macrophages (ELISA); type: cell-based, human; details: for LPS antagonistic activity: increasing concentrations, 10 ng/mL LPS 6 h; for inhibitory activity against LPS-induced TNFα production: concentration range of 0.1 nM to 10 μM
Procedure: Synthetic compounds in solid form were dissolved in tetrahydrofuran (THF), aliquotted in small volumes, vacuum-centrifuged for 1 h and stored at −80° C. as dry compounds. For cellular treatment, an aliquot was dissolved in an appropriate volume of dimethylsulfoxide (DMSO) to give a concentrated working stock solution. This stock solution was further diluted in DMSO to give the desired concentration range. The final concentration of DMSO in the cell treatments was always maintained at 0.6%. Concentrations of Fmoc-containing compounds were verified by absorbance using an extinction coefficient of 7800 M^−1 cm^−1 at 301 nm.
THP-1 cells were obtained from ATCC (Manassas, Va.) and maintained in RPMI-1640 culture medium (HyClone, Logan, Utah) containing 2 mM L-glutamine, 25 mM HEPES, 1.5 g/L sodium bicarbonate, 10% fetal bovine serum (FBS) (HyClone), 50 units/mL penicillin, 50 μg/mL streptomycin (HyClone), and 50 μM β-mercaptoethanol at 37° C. in 5% CO2. For cellular assay, THP-1 monocytes were centrifuged and resuspended in a fresh growth medium to a cell density of 5×10^5 cells/mL Cells were then seeded in a 48-well plate and differentiated into adherent macrophages by treatment with 10 ng/mL phorbol 12-myristate 13-acetate (PMA) (Sigma) for 24 h at 37° C. in 5% CO2. The non-adherent cells were removed and the adherent cells were washed and replenished with reduced FBS growth medium. For the two wells set aside for calculating percent differentiation, the cells were washed with PBS (Hyclone) prior to removal by 0.25% trypsin-EDTA. Cells in a separate well were removed with 0.25% trypsin and counted under the microscope using a hemocytometer to determine the number of adherent macrophages. For the remaining wells, the cells were pre-incubated with LPS antagonist compounds at different concentrations for 30 min followed by addition of 10 ng/mL ultrapure LPS from E. coli K12 (InvivoGen, San Diego, Calif.) for 6 h at 37° C. in 5% CO2. 0.6% DMSO was used as a control. The cell medium was collected and stored at −20° C. until analyzed by ELISA for secreted TNFα production.

TNFα production = test: Agonist activity: secreted TNFα in THP-1 macrophages in the absence of LPS; type: cell-based, human; details: for agonist activity in the absence of LPS: tested in the absence of LPS; for concentration range with agonist activity: FIG. 4 and FIG. 6
LPS = details: Boons et al.; Shiozaki et al.; Peri et al.; cited from earlier work
[2] = concentration at which toxicity is seen, human macrophage cells, XTT reduction
[3] = human macrophage cells (THP-1), 10 ng/mL LPS for 6 h
[4] = concentration range showing agonist activity, human macrophage cells
[5] = human macrophage cells (THP-1), 10 ng/mL LPS for 6 h, read-out: TNFα inhibition (IC50)

Structure (SMILES) | Toxicity (THP-1 macrophages; [2]) | LPS antagonistic activity ([1]; THP-1 macrophages) | inhibitory activity against LPS-induced TNFα production [1] | TNFα inhibition (IC50) [1, 3] | Agonist activity (TNFα production; [4]) | agonist activity in the absence of LPS (TNFα production) | toxicity (in words) (THP-1 macrophages; XTT reduction) | IC50 [1, 5] [µM] | other results
CO[C@H]1O[C@H](COC(=O)CCC(=O)OC[C@H](N)C(=O)OC(C)(C)C)[C@@H](O)[C@H](OCc2ccccc2)[C@H]1OCc1ccccc1 [Compound 12, Methyl 2,3-di-O-benzyl-6-O-(4-((S)-2-amino-3-(tert-butoxy)-3-oxopropyl)oxy-4-oxobutanoyl)-α-D-glycopyranoside] | None observed | do not display LPS antagonistic activity | no inhibitory activity | None observed | None observed | no agonist activity | – | – | –
CCCCCCCCCCCCCCO[C@H]1[C@@H](OC)O[C@H](C[N+](C)(C)C2CCCC2)[C@@H](O)[C@@H]1OCCCCCCCCCCCCCC [Compound 4, reference compound] | >30 µM | – | – | – | 30 to 100 µM | – | toxic at high concentrations | 6 | inhibition range ([1]; LPS-induced TNFα production): 3 to 10 µM; concentration range with agonist activity (TNFα production): > 10 µM; antagonistic activity against LPS as reported in the literature (LPS): provide antagonistic activity
CCCCCCCCCCCCCC(=O)O[C@H]1[C@@H](OC)O[C@H](COC(=O)CCC(=O)OC[C@H](NC(=O)OCC2c3ccccc3-c3ccccc32)C(=O)O)[C@@H](O)[C@@H]1OC(=O)CCCCCCCCCCCCC [Compound 19, Methyl 6-O-(4-((S)-2-(9-fluorenylmethoxyearbonyl)amino-2-carboxyethyl)oxy-4-oxobutanoyl)-2,3-di-O-tetradecanoyl-α-D-glucopyranoside] | >10 µM | highly potent LPS antagonistic activity | – | – | 10 to 30 µM | – | – | 3 | concentration at which toxic to the cells / cell viability compromised (THP-1 macrophages): ≥ 10 µM; Toxicity (THP-1 macrophages; at 5 μM compound): no observable toxicity; LPS response blocked ([1]; 5 μM compound): 80%; concentration at which inhibition of LPS-induced TNFα begins ([1]; THP-1 macrophages): ≥ 550 nM; concentration range with agonist activity (TNFα production): 10 to 30 µM
CO[C@H]1OC(COC(=O)CCC(=O)OC[C@H](NC(=O)OCC2c3ccccc3-c3ccccc32)C(=O)OC(C)(C)C)[C@@H](O)[C@H](OCc2ccccc2)C1OCc1ccccc1 (stereo partly drawn) [Compound 10, Methyl 2,3-di-O-benzyl-6-O-(4-((S)-2-(9-fluorenylmethoxyearbonyl)amino-3-(tert-butoxy)-3-oxopropyl)oxy-4-oxobutanoyl)-α-D-glycopyranoside] | None observed | do not display LPS antagonistic activity | no inhibitory activity | None observed | None observed | no agonist activity | – | – | –
CO[C@H]1O[C@H](COC(=O)CCC(=O)OC[C@H](N)C(=O)O)[C@@H](O)[C@H](OCc2ccccc2)[C@H]1OCc1ccccc1 [Compound 13, Methyl 2,3-di-O-benzyl-6-O-(4-((S)-2-amino-2-carboxyethyl)oxy-4-oxobutanoyl)-α-D-glycopyranoside] | None observed | do not display LPS antagonistic activity | no inhibitory activity | None observed | None observed | no agonist activity | – | – | –
CO[C@H]1OC(COC(=O)CCC(=O)OC[C@H](NC(=O)OCC2c3ccccc3-c3ccccc32)C(=O)O)[C@@H](O)[C@H](OCc2ccccc2)C1OCc1ccccc1 (stereo partly drawn) [Compound 11, Methyl 2,3-di-O-benzyl-6-O-(4-((S)-2-(9-fluorenylmethoxyearbonyl)amino-2-carboxyethyl)oxy-4-oxobutanoyl)-α-D-glycopyranoside] | >10 µM | displays LPS antagonistic activity | – | – | None observed | – | cell toxicity | 46 | concentration at which toxic to the cells / cell viability compromised (THP-1 macrophages): 30 to 100 µM; concentrations at which LPS-induced TNFα production is significantly inhibited ([1]; THP-1 macrophages): greater than 10 μM
CCCCCCCCCCCCCCO[C@H]1[C@@H](OC)O[C@H](COC(=O)CCC(=O)OC[C@H](NC(=O)OCC2c3ccccc3-c3ccccc32)C(=O)O)[C@@H](O)[C@@H]1OCCCCCCCCCCCCCC [Compound 24, Methyl 6-O-(4-((S)-2-(9-fluorenylmethoxycarbonyl)amino-2-carboxyethyl)oxy-4-oxobutanoyl)-2,3-di-O-tetradecanyl-α-D-glucopyranoside] | None observed | significant LPS antagonistic activity | – | – | None observed | – | without toxicity | 0.5 | Toxicity (THP-1 macrophages; tested 0.2 to 40 μM range): no toxicity; inhibition at 1 µM ([1]; Homo sapiens, THP-1, 1 μM compound): 70%; inhibition at 40 µM ([1]; Homo sapiens, THP-1, 40 μM compound, read-out: overall inhibition of LPS-induced TNFα production): 90%; IC50 ([1]; Macrophage, LPS-induced TNFα production in human macrophages, FIG. 5, read-out: IC50, curve fitting of the inhibition data): 0.47 µM; Agonist activity (TNFα production; tested 0.2 to 40 μM range): no toxicity or agonist activity
